According to patent publication US9260439B2, “Dihydropyrrolopyrimidine derivatives” (PFIZER INC., priority 2014, dated 2016):

These compounds were tested against truncated PI3Kα (p110α/iSH2 p85α) (Homo sapiens (Human), UniProt P42336) (assay: PI3KA_Act fluorescence polarization kinase assay (Ki)). Details: 1 mM ATP.
Assay type: biochemical
In short: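 Ki values result from fitting fluorescence polarization signals to the Morrison equation for tight-binding competitive inhibitors. The detector was GST-Grp1 PH domain with TAMRA-PIP3, read after a 30 min room-temperature reaction of 0.5 nM truncated PI3Kα and 30 μM PIP2 at pH 7.4 in HEPES/NaCl/MgCl2/DTT/CHAPS buffer. Compounds were tested as 12-point 3-fold dilutions from 3 μM.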

truncated PI3Kα (p110α/iSH2 p85α), sequence (P42336 whole entry, the tested form may be a part): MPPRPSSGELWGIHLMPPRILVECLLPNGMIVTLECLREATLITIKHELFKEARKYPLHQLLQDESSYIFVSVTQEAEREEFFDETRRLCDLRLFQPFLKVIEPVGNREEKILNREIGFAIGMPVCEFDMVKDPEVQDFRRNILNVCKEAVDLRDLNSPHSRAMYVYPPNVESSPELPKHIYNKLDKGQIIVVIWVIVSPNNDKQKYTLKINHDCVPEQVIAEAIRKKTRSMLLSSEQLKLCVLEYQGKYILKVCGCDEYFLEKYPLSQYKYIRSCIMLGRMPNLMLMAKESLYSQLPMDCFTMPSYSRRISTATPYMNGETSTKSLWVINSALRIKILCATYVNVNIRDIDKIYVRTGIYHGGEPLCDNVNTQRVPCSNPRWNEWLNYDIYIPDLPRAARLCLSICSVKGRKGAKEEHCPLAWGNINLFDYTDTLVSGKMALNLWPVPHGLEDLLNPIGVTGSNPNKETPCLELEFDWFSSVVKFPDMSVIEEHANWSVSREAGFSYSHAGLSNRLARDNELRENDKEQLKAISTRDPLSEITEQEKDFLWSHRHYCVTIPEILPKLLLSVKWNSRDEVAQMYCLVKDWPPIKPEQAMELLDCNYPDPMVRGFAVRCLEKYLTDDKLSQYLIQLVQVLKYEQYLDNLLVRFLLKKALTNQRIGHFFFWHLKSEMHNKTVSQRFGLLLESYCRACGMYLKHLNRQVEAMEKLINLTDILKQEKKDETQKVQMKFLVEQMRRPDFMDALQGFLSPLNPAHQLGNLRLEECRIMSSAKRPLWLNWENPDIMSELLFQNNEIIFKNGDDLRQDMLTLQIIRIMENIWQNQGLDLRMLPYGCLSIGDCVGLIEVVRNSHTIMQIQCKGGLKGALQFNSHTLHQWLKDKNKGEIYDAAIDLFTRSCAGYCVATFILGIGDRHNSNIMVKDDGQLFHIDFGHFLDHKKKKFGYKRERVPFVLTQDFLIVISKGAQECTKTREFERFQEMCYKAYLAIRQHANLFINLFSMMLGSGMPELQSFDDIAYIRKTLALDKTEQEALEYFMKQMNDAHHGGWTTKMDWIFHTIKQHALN

| SMILES | PI3KA_Act Ki [nM] |
| --- | --- |
| C[C@H]1COCCN1c1nc(-c2cnc(N)nc2)c2c(n1)N(C1CN(C(=O)C3(C)CC3)C1)CC2 [Example 458, (3-{4-(2-aminopyrimidin-5-yl)-2-[(3S)-3-methylmorpholin-4-yl]-5,6-dihydro-7H-pyrrolo[2,3-d]pyrimidin-7-yl}azetidin-1-yl)(1-methylcyclopropyl)methanone] | 0.159 |
| C[C@H]1COCCN1c1nc(-c2cnc(N)nc2)c2c(n1)N(C1(C)CN(C(=O)C3(C)CC3)C1)CC2 [Example 459, (3-{4-(2-aminopyrimidin-5-yl)-2-[(3S)-3-methylmorpholin-4-yl]-5,6-dihydro-7H-pyrrolo[2,3-d]pyrimidin-7-yl}-3-methylazetidin-1-yl)(1-methylcyclopropyl)methanone] | 0.057 |
| COC(=O)N1CC(C)(N2CCc3c(-c4cnc(N)nc4)nc(N4CCOC[C@@H]4C)nc32)C1 [Example 460, methyl 3-{4-(2-aminopyrimidin-5-yl)-2-[(3S)-3-methylmorpholin-4-yl]-5,6-dihydro-7H-pyrrolo[2,3-d]pyrimidin-7-yl}-3-methylazetidine-1-carboxylate] | 0.047 |
| C[C@H]1COCCN1c1nc(-c2cnc(N)nc2)c2c(n1)N(C1(C)CN(C(=O)OC(C)(C)C)C1)CC2 [Example 461, tert-butyl 3-{4-(2-aminopyrimidin-5-yl)-2-[(3S)-3-methylmorpholin-4-yl]-5,6-dihydro-7H-pyrrolo[2,3-d]pyrimidin-7-yl}-3-methylazetidine-1-carboxylate] | 0.040 |
| CNC(=O)N1CC(C)(N2CCc3c(-c4cnc(N)nc4)nc(N4CCOC[C@@H]4C)nc32)C1 [Example 462, 3-{4-(2-aminopyrimidin-5-yl)-2-[(3S)-3-methylmorpholin-4-yl]-5,6-dihydro-7H-pyrrolo[2,3-d]pyrimidin-7-yl}-N,3-dimethylazetidine-1-carboxamide] | 0.057 |
| C[C@H]1COCCN1c1nc(-c2cnc(N)nc2)c2c(n1)N(C1CN(S(=O)(=O)C3CCC3)C1)CC2 [Example 463, 5-{7-[1-(cyclobutylsulfonyl)azetidin-3-yl]-2-[(3S)-3-methylmorpholin-4-yl]-6,7-dihydro-5H-pyrrolo[2,3-d]pyrimidin-4-yl}pyrimidin-2-amine] | 0.169 |
| C[C@H]1COCCN1c1nc(-c2cnc(N)nc2)c2c(n1)N(C1CN(S(=O)(=O)N3CCC3)C1)CC2 [Example 464, 5-{7-[1-(azetidin-1-ylsulfonyl)azetidin-3-yl]-2-[(3S)-3-methylmorpholin-4-yl]-6,7-dihydro-5H-pyrrolo[2,3-d]pyrimidin-4-yl}pyrimidin-2-amine] | 0.193 |
| C[C@H]1COCCN1c1nc(-c2cnc(N)nc2)c2c(n1)N([C@@]1(C)CCNC1)CC2.Cl [Example 465, 5-{2-[(3S)-3-methylmorpholin-4-yl]-7-[(3S)-3-methylpyrrolidin-3-yl]-6,7-dihydro-5H-pyrrolo[2,3-d]pyrimidin-4-yl}pyrimidin-2-amine hydrochloride] | 0.160 |
| C[C@H]1COCCN1c1nc(-c2cnc(N)nc2)c2c(n1)N([C@]1(C)CCNC1)CC2.Cl [Example 466, 5-{2-[(3S)-3-methylmorpholin-4-yl]-7-[(3R)-3-methylpyrrolidin-3-yl]-6,7-dihydro-5H-pyrrolo[2,3-d]pyrimidin-4-yl}pyrimidin-2-amine hydrochloride] | 0.303 |
| C[C@@H]1CNC[C@@]1(C)N1CCc2c(-c3cnc(N)nc3)nc(N3CCOC[C@@H]3C)nc21.Cl [Example 467, 5-{7-[(3S,4R)-3,4-dimethylpyrrolidin-3-yl]-2-[(3S)-3-methylmorpholin-4-yl]-6,7-dihydro-5H-pyrrolo[2,3-d]pyrimidin-4-yl}pyrimidin-2-amine hydrochloride] | 0.106 |
| C[C@H]1COCCN1c1nc(-c2cnc(N)nc2)c2c(n1)N([C@@]1(C)CNC[C@@H]1C)CC2.Cl [Example 468, 5-{7-[(3R,4S)-3,4-dimethylpyrrolidin-3-yl]-2-[(3S)-3-methylmorpholin-4-yl]-6,7-dihydro-5H-pyrrolo[2,3-d]pyrimidin-4-yl}pyrimidin-2-amine hydrochloride] | 0.634 |
| CC(=O)N1CC[C@](C)(N2CCc3c(-c4cnc(N)nc4)nc(N4CCOC[C@@H]4C)nc32)C1 [Example 469, 1-[(3S)-3-{4-(2-aminopyrimidin-5-yl)-2-[(3S)-3-methylmorpholin-4-yl]-5,6-dihydro-7H-pyrrolo[2,3-d]pyrimidin-7-yl}-3-methylpyrrolidin-1-yl]ethanone] | 0.052 |
| CC(=O)N1CC[C@@](C)(N2CCc3c(-c4cnc(N)nc4)nc(N4CCOC[C@@H]4C)nc32)C1 [Example 470, 1-[(3R)-3-{4-(2-aminopyrimidin-5-yl)-2-[(3S)-3-methylmorpholin-4-yl]-5,6-dihydro-7H-pyrrolo[2,3-d]pyrimidin-7-yl}-3-methylpyrrolidin-1-yl]ethanone] | 0.070 |
| C[C@@H](O)C(=O)N1CC[C@](C)(N2CCc3c(-c4cnc(N)nc4)nc(N4CCOC[C@@H]4C)nc32)C1 [Example 471, (2R)-1-[(3S)-3-{4-(2-aminopyrimidin-5-yl)-2-[(3S)-3-methylmorpholin-4-yl]-5,6-dihydro-7H-pyrrolo[2,3-d]pyrimidin-7-yl}-3-methylpyrrolidin-1-yl]-2-hydroxypropan-1-one] | 0.037 |
| CC(C)[C@@H](O)C(=O)N1CC[C@](C)(N2CCc3c(-c4cnc(N)nc4)nc(N4CCOC[C@@H]4C)nc32)C1 [Example 472, (2R)-1-[(3S)-3-{4-(2-aminopyrimidin-5-yl)-2-[(3S)-3-methylmorpholin-4-yl]-5,6-dihydro-7H-pyrrolo[2,3-d]pyrimidin-7-yl}-3-methylpyrrolidin-1-yl]-2-hydroxy-3-methylbutan-1-one] | 0.044 |
| C[C@H]1COCCN1c1nc(-c2cnc(N)nc2)c2c(n1)N([C@@]1(C)CCN(C(=O)C(C)(C)O)C1)CC2 [Example 473, 1-[(3S)-3-{4-(2-aminopyrimidin-5-yl)-2-[(3S)-3-methylmorpholin-4-yl]-5,6-dihydro-7H-pyrrolo[2,3-d]pyrimidin-7-yl}-3-methylpyrrolidin-1-yl]-2-hydroxy-2-methylpropan-1-one] | 0.076 |
| C[C@H]1COCCN1c1nc(-c2cnc(N)nc2)c2c(n1)N([C@@]1(C)CCN(C(=O)C(C)(C)CO)C1)CC2.Cl [Example 474, 1-[(3S)-3-{4-(2-aminopyrimidin-5-yl)-2-[(3S)-3-methylmorpholin-4-yl]-5,6-dihydro-7H-pyrrolo[2,3-d]pyrimidin-7-yl}-3-methylpyrrolidin-1-yl]-3-hydroxy-2,2-dimethylpropan-1-one hydrochloride] | 0.045 |
| C[C@H](N)C(=O)N1CC[C@](C)(N2CCc3c(-c4cnc(N)nc4)nc(N4CCOC[C@@H]4C)nc32)C1.Cl [Example 475, (2S)-2-amino-1-[(3S)-3-{4-(2-aminopyrimidin-5-yl)-2-[(3S)-3-methylmorpholin-4-yl]-5,6-dihydro-7H-pyrrolo[2,3-d]pyrimidin-7-yl}-3-methylpyrrolidin-1-yl]propan-1-one hydrochloride] | 0.068 |
| C[C@@H](N)C(=O)N1CC[C@](C)(N2CCc3c(-c4cnc(N)nc4)nc(N4CCOC[C@@H]4C)nc32)C1.Cl [Example 476, (2R)-2-amino-1-[(3S)-3-{4-(2-aminopyrimidin-5-yl)-2-[(3S)-3-methylmorpholin-4-yl]-5,6-dihydro-7H-pyrrolo[2,3-d]pyrimidin-7-yl}-3-methylpyrrolidin-1-yl]propan-1-one hydrochloride] | <0.018 |
| CC[C@H](N)C(=O)N1CC[C@](C)(N2CCc3c(-c4cnc(N)nc4)nc(N4CCOC[C@@H]4C)nc32)C1.Cl [Example 477, (2S)-2-amino-1-[(3S)-3-{4-(2-aminopyrimidin-5-yl)-2-[(3S)-3-methylmorpholin-4-yl]-5,6-dihydro-7H-pyrrolo[2,3-d]pyrimidin-7-yl}-3-methylpyrrolidin-1-yl]butan-1-one hydrochloride] | 0.038 |
| CC[C@@H](N)C(=O)N1CC[C@](C)(N2CCc3c(-c4cnc(N)nc4)nc(N4CCOC[C@@H]4C)nc32)C1.Cl [Example 478, (2R)-2-amino-1-[(3S)-3-{4-(2-aminopyrimidin-5-yl)-2-[(3S)-3-methylmorpholin-4-yl]-5,6-dihydro-7H-pyrrolo[2,3-d]pyrimidin-7-yl}-3-methylpyrrolidin-1-yl]butan-1-one hydrochloride] | 0.026 |
| C[C@H]1COCCN1c1nc(-c2cnc(N)nc2)c2c(n1)N([C@@]1(C)CCN(C(=O)[C@@H](N)CF)C1)CC2.Cl [Example 479, (2R)-2-amino-1-[(3S)-3-{4-(2-aminopyrimidin-5-yl)-2-[(3S)-3-methylmorpholin-4-yl]-5,6-dihydro-7H-pyrrolo[2,3-d]pyrimidin-7-yl}-3-methylpyrrolidin-1-yl]-3-fluoropropan-1-one hydrochloride] | 0.026 |
| C[C@H]1COCCN1c1nc(-c2cnc(N)nc2)c2c(n1)N([C@@]1(C)CCN(C(=O)[C@H](N)CF)C1)CC2.Cl [Example 480, (2S)-2-amino-1-[(3S)-3-{4-(2-aminopyrimidin-5-yl)-2-[(3S)-3-methylmorpholin-4-yl]-5,6-dihydro-7H-pyrrolo[2,3-d]pyrimidin-7-yl}-3-methylpyrrolidin-1-yl]-3-fluoropropan-1-one hydrochloride] | <0.018 |
| C[C@H]1COCCN1c1nc(-c2cnc(N)nc2)c2c(n1)N([C@@]1(C)CCN(C(=O)[C@@H](N)C3CC3)C1)CC2.Cl [Example 481, (2S)-2-amino-1-[(3S)-3-{4-(2-aminopyrimidin-5-yl)-2-[(3S)-3-methylmorpholin-4-yl]-5,6-dihydro-7H-pyrrolo[2,3-d]pyrimidin-7-yl}-3-methylpyrrolidin-1-yl]-2-cyclopropylethanone hydrochloride] | 0.149 |
